Reference: the supplement of paper PMC10307832

These cell lines were tested with CC1=C(N=C(N=C1N)[C@H](CC(=O)N)NC[C@@H](C(=O)N)N)C(=O)N[C@@H]([C@H](C2=CN=CN2)OC3C(C(C(C(O3)CO)O)O)OC4C(C(C(C(O4)CO)O)OC(=O)N)O)C(=O)N[C@H](C)[C@H]([C@H](C)C(=O)N[C@@H]([C@@H](C)O)C(=O)NCCC5=NC(=CS5)C6=NC(=CS6)C(=O)NCCC[S+](C)C)O [Bleomycin] + CCNC(=O)c1noc(-c2cc(C(C)C)c(O)cc2O)c1-c1ccc(CN2CCOCC2)cc1 [Luminespib] (partner 0.01 µM) (assay: relative viability (nuclei count vs DMSO), 5 days (fraction); higher = more cells survive). Conditions: first compound 0.01 µM; main component drawn.
Outline: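 Lung cancer cell lines in 1536-well plates were dosed by pin tool the day after seeding, either with one drug alone or with a fixed anchor-drug dose plus five library-drug doses (not always all listed) in √10 steps. After 5 days, cells were fixed and their nuclei stained in one step (final 0.05% Triton X-100, 1% formaldehyde, 1 ug/ml Hoechst), then counted on 4× images. Relative viability is the nuclei count in treated wells divided by that in vehicle wells. Values are medians of duplicate plates.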
For SW 900, the relative viability was 0.187.
In the case of LU99A, the relative viability is reported as 0.297.
BEN was tested, and the relative viability was 0.327.
HARA showed a relative viability of 0.682.
In the case of NCI-H441, the relative viability is reported as 0.31.
With LCLC-97TM1 the relative viability was 0.519.
NCI-H2009 gave a relative viability of 0.962.
A-427 gave a relative viability of 0.747.
NCI-H460 showed a relative viability of 0.0436.
In the case of NCI-H727, the relative viability is reported as 0.375.
NCI-H1734 was tested, and the relative viability was 0.167.
Work on NCI-H520 yielded a relative viability of 0.227.
In the case of NCI-H2405, the relative viability is reported as 0.651.
With SW 1573 the relative viability was 0.508.
In the case of NCI-H1395, the relative viability is reported as 0.648.
201T was tested, and the relative viability was 1.06.
Work on NCI-H1915 yielded a relative viability of 0.533.
Cell Line HCC-827 has a relative viability of 0.525.
LXF-289 gave a relative viability of 0.568.
With NCI-H2347 the relative viability was 0.275.
In the case of NCI-H650, the relative viability is reported as 0.541.
CAL-12T gave a relative viability of 0.493.
With NCI-H1651 the relative viability was 0.538.
EPLC-272H gave a relative viability of 0.361.
With NCI-H23 the relative viability was 0.228.
NCI-H1355 was tested, and the relative viability was 0.672.
NCI-H322M was tested, and the relative viability was 0.781.
Cell Line NCI-H1437 has a relative viability of 1.01.

Same assay, conditions: first compound 0.03162 µM; main component drawn
With HOP-62 the relative viability was 0.705.
SW 900 gave a relative viability of 0.166.
With LU99A the relative viability was 0.283.
BEN gave a relative viability of 0.329.
HARA showed a relative viability of 0.751.
NCI-H441 showed a relative viability of 0.331.
LCLC-97TM1 showed a relative viability of 0.635.
Work on NCI-H2009 yielded a relative viability of 1.04.
In the case of A-427, the relative viability is reported as 0.775.
NCI-H460 gave a relative viability of 0.0291.
Cell Line NCI-H727 has a relative viability of 0.376.
For NCI-H1734, the relative viability was 0.187.
In the case of NCI-H520, the relative viability is reported as 0.196.
NCI-H2405 was tested, and the relative viability was 0.697.
Cell Line SW 1573 has a relative viability of 0.616.
NCI-H1395 showed a relative viability of 0.648.
For 201T, the relative viability was 0.984.
With NCI-H1915 the relative viability was 0.568.
HCC-827 gave a relative viability of 0.576.
With LXF-289 the relative viability was 0.472.
NCI-H2347 was tested, and the relative viability was 0.381.
NCI-H650 showed a relative viability of 0.729.
CAL-12T gave a relative viability of 0.555.
With NCI-H1651 the relative viability was 0.574.
EPLC-272H showed a relative viability of 0.23.
Cell Line NCI-H23 has a relative viability of 0.2.
With NCI-H1355 the relative viability was 0.606.
In the case of NCI-H322M, the relative viability is reported as 0.783.
NCI-H1437 gave a relative viability of 0.999.

Same assay, conditions: first compound 0.1 µM; main component drawn
For HOP-62, the relative viability was 0.462.
SW 900 was tested, and the relative viability was 0.199.
Cell Line LU99A has a relative viability of 0.256.
In the case of BEN, the relative viability is reported as 0.342.
HARA was tested, and the relative viability was 0.705.
With NCI-H441 the relative viability was 0.251.
For LCLC-97TM1, the relative viability was 0.51.
With NCI-H2009 the relative viability was 0.961.
Work on A-427 yielded a relative viability of 0.753.
Work on NCI-H460 yielded a relative viability of 0.0214.
NCI-H727 gave a relative viability of 0.357.
With NCI-H1734 the relative viability was 0.198.
With NCI-H520 the relative viability was 0.218.
NCI-H2405 was tested, and the relative viability was 0.589.
Cell Line SW 1573 has a relative viability of 0.118.
NCI-H1395 was tested, and the relative viability was 0.54.
With 201T the relative viability was 0.936.
NCI-H1915 gave a relative viability of 0.398.
HCC-827 gave a relative viability of 0.377.
With LXF-289 the relative viability was 0.49.
NCI-H2347 was tested, and the relative viability was 0.431.
For NCI-H650, the relative viability was 0.694.
For CAL-12T, the relative viability was 0.233.
With NCI-H1651 the relative viability was 0.402.
EPLC-272H showed a relative viability of 0.203.
In the case of NCI-H23, the relative viability is reported as 0.211.
NCI-H1355 showed a relative viability of 0.698.
For NCI-H322M, the relative viability was 0.709.
With NCI-H1437 the relative viability was 1.

Same assay, conditions: first compound 0.3162 µM; main component drawn
With HOP-62 the relative viability was 0.254.
In the case of SW 900, the relative viability is reported as 0.185.
Cell Line LU99A has a relative viability of 0.172.
For BEN, the relative viability was 0.332.
For HARA, the relative viability was 0.442.
NCI-H441 showed a relative viability of 0.223.
LCLC-97TM1 gave a relative viability of 0.269.
NCI-H2009 showed a relative viability of 0.704.
A-427 was tested, and the relative viability was 0.256.
For NCI-H460, the relative viability was 0.0162.
Cell Line NCI-H1734 has a relative viability of 0.13.
With NCI-H520 the relative viability was 0.24.
With NCI-H2405 the relative viability was 0.347.
SW 1573 showed a relative viability of 0.174.
With NCI-H1395 the relative viability was 0.397.
201T showed a relative viability of 0.667.
NCI-H1915 gave a relative viability of 0.235.
With HCC-827 the relative viability was 0.39.
LXF-289 gave a relative viability of 0.133.
NCI-H2347 was tested, and the relative viability was 0.235.
NCI-H650 was tested, and the relative viability was 0.2.
In the case of CAL-12T, the relative viability is reported as 0.173.
Work on NCI-H1651 yielded a relative viability of 0.257.
EPLC-272H gave a relative viability of 0.145.
In the case of NCI-H23, the relative viability is reported as 0.176.
NCI-H1355 showed a relative viability of 0.304.
In the case of NCI-H322M, the relative viability is reported as 0.442.
With NCI-H1437 the relative viability was 0.63.

Same assay, conditions: first compound 1 µM; main component drawn
HOP-62 showed a relative viability of 0.193.
Work on SW 900 yielded a relative viability of 0.183.
LU99A gave a relative viability of 0.162.
BEN was tested, and the relative viability was 0.2.
With HARA the relative viability was 0.543.
NCI-H441 was tested, and the relative viability was 0.216.
LCLC-97TM1 gave a relative viability of 0.187.
Cell Line NCI-H2009 has a relative viability of 0.618.
A-427 showed a relative viability of 0.158.
With NCI-H460 the relative viability was 0.0138.
NCI-H727 showed a relative viability of 0.223.
Cell Line NCI-H1734 has a relative viability of 0.147.
With NCI-H520 the relative viability was 0.213.
NCI-H2405 gave a relative viability of 0.358.
SW 1573 gave a relative viability of 0.116.
Cell Line NCI-H1395 has a relative viability of 0.47.
Work on 201T yielded a relative viability of 0.656.
With NCI-H1915 the relative viability was 0.145.
Work on HCC-827 yielded a relative viability of 0.233.
LXF-289 was tested, and the relative viability was 0.093.
Work on NCI-H2347 yielded a relative viability of 0.385.
Work on NCI-H650 yielded a relative viability of 0.15.
For CAL-12T, the relative viability was 0.143.
Cell Line NCI-H1651 has a relative viability of 0.205.
EPLC-272H gave a relative viability of 0.133.
NCI-H23 gave a relative viability of 0.216.
In the case of NCI-H1355, the relative viability is reported as 0.289.
Cell Line NCI-H322M has a relative viability of 0.42.
In the case of NCI-H1437, the relative viability is reported as 0.585.
